According to patent publication EP0366273A1, “Benzopyran derivatives with smooth muscle relaxant activity” (BEECHAM GROUP PLC, priority 1988, dated 1990):

Tests used:
[1] = test system: Spontaneously hypertensive rats; experiment: Blood pressure lowering activity, tail cuff method; type: in vivo; settings: dose 1 mg/kg, initial blood pressure 265 ± 8 mmHg, 6 rats
Description: Blood Pressure Lowering Activity
Systolic blood pressures were recorded by a modification of the tail cuff method described by I.M. Claxton, M.G. Palfreyman, R.H. Poyser, R.L. Whiting, European Journal of Pharmacology, 37, 179 (1976). A W+W BP recorder, model 8005 was used to display pulses.Prior to all measurements rats were placed in a heated environment (33.5 ± 0.5°C) before transfer to a restraining cage. Each determination of blood pressure was the mean of at least 6 readings. Spontaneously hypertensive rats (ages 12-18 weeks) with systolic blood pressures >180 mmHg were considered hypertensive.

[2] = test system: guinea pig tracheal spiral preparations; experiment: Bronchodilation in vitro; guinea pig tracheal spiral preparations; type: cell-based; settings: relaxation relative to total relaxation evoked by 10⁻³M isoprenaline
Description: (a) Bronchodilation in vitro; guinea pig tracheal spiral preparations.
Male guinea pigs (300-600g) were stunned by a blow to the head and bled from the carotid artery. The trachea was exposed, dissected free of connective tissue, and transferred to oxygenated krebs solution at 37°C. Next, spirals (2 per trachea) were prepared by cutting the whole trachea spirally along its longitudinal axis and then dividing this spiral lengthwise. Each preparation was mounted, using silk thread, in a 10ml organ bath filled with krebs solution at 37°C and bubbled with 5% CO₂ with O₂. The resting tension of the preparations was set at 2g and changes in muscle tension were monitored isometrically by means of a UFI (2oz) force and displacement transducer (Ormed Ltd) connected to a Linseis pen recorder. […] During this equilibration period the preparations were washed by upward displacement at 15 minute intervals and, if necessary, the resting tension was readjusted to 2g using a mechanical micromanipulator system.
Once a steady resting tension had been obtained, the preparations were dosed cumulatively with the test compound (10⁻⁸-2x10⁻⁵M), and finally a maximum relaxation achieved by addition of 10⁻³M isoprenaline. The fall in tension evoked by the test compound was expressed as a percentage of the total relaxation evoked in the presence of 10⁻³M isoprenaline. […]

For `CC1(C)Oc2ccc(C#N)cc2C(N2CCCC2=O)C1=O` (centres unmarked) [Example 1, 6-Cyano-3,4-dihydro-2,2 dimethyl-4-(2-oxopyrrolidin-1-yl)-2H-1-benzopyran-3-one], the “% Change in Systolic Blood Pressure” value ([1]; 1 h post dose) was -27 ± 5 (6 rats) %, the “% Change in Systolic Blood Pressure” value ([1]; 2 h post dose) was -24 ± 1 (6 rats) % and the “% Change in Systolic Blood Pressure” value ([1]; 4 h post dose) was -19 ± 6 (6 rats) %. The “% Change in Systolic Blood Pressure” value ([1]; 6 h post dose) was -25 ± 5 (6 rats) % and the “Intrinsic Activity” value [2] was 0.89.
